We go through four compounds from patent US10632208B2, “Peptide-mediated drug delivery across epithelial barrier” (Purdue Research Foundation, priority 2017, dated 2020).

Data set [1] concerns L. monocytogenes. As to the kind of experiment: Intracellular invasion of L. monocytogenes in Caco-2 cells (gentamicin protection). In kind it is cell-based, Listeria monocytogenes. As for the experimental part: For bacterial invasion analysis, monolayers were washed with PBS after 1 h of infection (MOI, ˜50) and incubated with DMEM-FBS (10%) containing gentamicin (50 μg/mL) for 1 h. Caco-2 cells were lysed with 0.1% Triton X, and the internalized bacteria were enumerated by plating.

Data set [2] relates to L. monocytogenes. The data set is described as follows: Translocation of L. monocytogenes through polarized Caco-2 monolayers on Transwell filter-inserts. In kind it is cell-based, Listeria monocytogenes. The settings on record: for effect on translocation of the lap strain: 30 min pretreatment, BAY 10 μM or PDTC 100 μM. As for the experimental part: Caco-2 cells were grown as monolayers on Transwell inserts with 3.0 μm pores (Corning-Costar) for up to 14-21 days. TEER was measured to monitor the monolayer integrity (Millicells Voltmeter, Millipore). A TEER value of at least 200 Ω/cm^2 (±10) was used as the basal value to monitor the monolayer integrity. Bacterial cells were washed three times in PBS and resuspended in DMEM-FBS (10%) at a MOI of ˜50 and were added to the apical side of the Transwell system, and after 2 h incubation period at 37° C. in 5% CO2, the liquid was collected from the basal well, and then translocated bacteria were enumerated by plating (Burkholder and Bhunia, 2010). For analysis of FD4 flux, non-metabolizable 4 kDa FITC-labeled dextran (FD4; 5 mg/ml, Sigma-Aldrich) was added with bacteria (MOI, ˜50) resuspended in DMEM-FBS (10%) and added to the apical side. After 2 h incubation at 37° C. in 5% CO2, the liquid was collected from the basal well and fluorescence was measured (Em: 485 nm; Ex: 520 nm; Spectramax, Molecular Devices). For pharmacological inhibition treatments, PDTC (100 μM for 30 min pre-treatment; R&D Systems), Bay-11-7085 (10 μM for 30 min pre-treatment; Sigma-Aldrich), ML-9 (20 μM for 30 min pre-treatment; Sigma-Aldrich), PIK (150 μM, 30 min-pre-treatment and kept during 2-h infection) (Zolotarevsky et al., 2002), and Cytochalasin D (1 μg/mL for 1 h; Sigma-Aldrich) were used separately.
For re-association of externally added LAP to the lap^− mutant, bacteria were harvested from 1 ml of overnight grown culture, and the pellet was washed three times in PBS before the addition of 1 or 2 μg/mL of purified LAP. The mixture was incubated for 30 min at 30° C. with continuous shaking and then pelleted, washed five times in the PBS, resuspended in DMEM, and used in the aforementioned translocation assay.

A further data set relates to Caco-2 cell monolayers. As to the kind of experiment: Transepithelial electrical resistance (TEER) of Caco-2 monolayers on Transwell inserts. In kind it is cell-based, human. The settings on record: for effect on Caco-2 TEER in LAP-treated cells: BAY 10 μM or PDTC 100 μM.
The next data set deals with MLCK. The data set is described as follows: Immunoblot of MLCK and P-MLC in whole-cell Caco-2 lysates. In kind it is cell-based, human. The settings on record: pre-treatment prior to infection with WT strain, relative to uninfected cells. As for the experimental part:
(§1) To extract the proteins from Caco-2 cells, cells were seeded in 6-well plates for 14-21 days. Following treatment, the cells were washed, scraped from the bottom of 6-well plates, suspended in PBS, and pelleted by centrifugation. Total protein from Caco-2 cells was extracted using the M-PER Extraction Kit (Thermo Fisher Scientific). Detergent-insoluble (membrane) and detergent-soluble (cytosolic) proteins were isolated using a Mem-Per Eukaryotic Protein Extraction Kit (Thermo Fisher Scientific) while the cytosolic and nuclear proteins were extracted using NE-PER Extraction Reagent (Thermo Fisher Scientific). To extract proteins from ileal epithelial cells, the epithelial cell fraction from ileal tissues were isolated as described above and the detergent-insoluble and the detergent-soluble proteins were isolated using a Mem-Per Eukaryotic Protein Extraction Kit.
(§2) To extract total protein from intact bacterial cells, sample solvent buffer and sonication (3 cycles of 20 min each) were used. […] The protein concentrations were determined by BCA assay (Thermo Fisher Scientific), and separated on SDS-PAGE gels (10-12.5% polyacrylamide) and electro-transferred to polyvinylidene difluoride (PVDF) membrane (Millipore). […] To compare the reaction intensities, the average band densities were determined using Quantity One software (Bio-Rad). […]

The next data set deals with NF-κB(p65). The data set is described as follows: Immunoblot of NF-κB activation in Caco-2 cytoplasmic and nuclear extracts. In kind it is cell-based, human. The settings on record: BAY 10 μM or PDTC 100 μM, Caco-2 cells. As for the experimental part: as §1
To extract total protein from intact bacterial cells, sample solvent buffer and sonication (3 cycles of […]) were used. To isolate the cell wall-associated proteins bacterial pellets were resuspended in 0.5 ml protein extraction buffer (0.5% SDS, 10 mM Tris at pH 6.9), and incubated at 37° C. for 30 min with agitation. The samples were centrifuged (14,000×g, 10 min, 4° C.), and the supernatants (containing cell wall-associated proteins) were retained. Halt proteases and phosphatase inhibitors (Thermo Fisher Scientific) were used during all of the protein extraction procedures. The protein concentrations were determined by BCA assay (Thermo Fisher Scientific), and separated on SDS-PAGE gels (10-12.5% polyacrylamide) and electro-transferred to polyvinylidene difluoride (PVDF) membrane (Millipore). The membranes were then blocked in 5% nonfat dry milk (NFDM) in 0.1 M Tris-buffered saline, pH 7.5 (TBS) containing 0.1% Tween 20 (TBST) for at least 1 h. All of the primary antibodies were diluted in 5% bovine serum albumin (BSA) or 5% NFDM in TBST and incubated overnight. Secondary antibodies (1:2000 in 5% NFDM in TBST) incubated for 1 h at 37° C., and a chemiluminescence method was performed using LumiGLO reagent (Cell Signaling). The membranes were exposed to X-ray films or visualized using the Chemi-Doc XRS system (Bio-Rad). To immunoprobe the same membrane with another antibody, the originally bound antibodies from the membranes were removed by incubating the membranes in Restore Western Blot Stripping Buffer (Thermo Fisher Scientific) according to the manufacturer's protocol. To compare the reaction intensities, the average band densities were determined using Quantity One software (Bio-Rad). Densitometry reports represent the mean±SEM after normalization to the loading control and is presented as % change of protein with the average for untreated cells (control) set at 100%. Immunoblots and densitometric reports are representative of 2-3 independent experiments.
In general terms: A western blot detects proteins with antibodies after separation by electrophoresis.

Data set [3] concerns occludin, claudin-1 and E-cadherin. As to the kind of experiment: Immunoblot of junctional proteins in detergent-insoluble fraction of Caco-2 cells. In kind it is cell-based, human. As for the experimental part:
as §1, §2

The structures appear in SMILES notation. Entries after “also recorded” stand apart in the source; their conditions may differ.

Take `O=S(=O)(c1cccc2c(Cl)cccc12)N1CCCNCC1` [ML-9]: the “effect on intracellular invasion of the WT strain” value (“effect on intracellular invasion” below) in the data set on L. monocytogenes [1] is “none of these inhibitors, affected the intracellular invasion capabilities”. The “effect on translocation of WT and ΔinlA strains” value with L. monocytogenes [2] (PIK 150 μM or ML-9 20 μM, MOI 50) is given as “significantly reduced”.

As to `C=C1[C@@H](C)[C@H]2[C@H](Cc3ccccc3)NC(=O)[C@]23[C@H](OC(C)=O)/C=C/[C@@](C)(O)C(=O)[C@@H](C)C/C=C/[C@H]3[C@@H]1O` [Cytochalasin D], the “effect on intracellular invasion” value with L. monocytogenes [1] was “low”. In addition, the “increase of translocation of WT” value in the data set on L. monocytogenes [2] (cytochalasin D 1 μg/mL for 1 h) is reported as “approximately 2.5 fold”. Besides, the “effect of the inhibitor alone on Caco-2 TEER” value in the data set with Caco-2 cell monolayers is listed as “very low”.

Consider `CC(C)(C)c1ccc(S(=O)(=O)/C=C/C#N)cc1` [BAY, BAY 11-7085], for which, in the data set with MLCK, the “levels of MLCK and P-MLC in whole cell lysate” value is “unchanged levels”. Also, the “effect on intracellular invasion” value with L. monocytogenes [1] is given as “did not affect”. For the same compound, the “effect on LAP-mediated NF-κB activation” value in the data set with NF-κB(p65) is on record as “inhibited”. Also, in the data set on L. monocytogenes [2], the “effect on translocation of the lap strain” value is “no apparent effect”. Also, the “effect on Caco-2 TEER in LAP-treated cells” value in the data set with Caco-2 cell monolayers was “restored”. The “effect of the inhibitor alone on expression of junctional proteins” value in data set [3] is reported as “no effect”. Also, the “effect on L. monocytogenes-induced redistribution of occludin, claudin-1 and E-cadherin” value in data set [3] (PIK 150 μM or BAY 10 μM, 30 min, prior to WT infection (MOI 50, 45 min)) is “prevented; also recorded: Restoration”.

As to `S=C(S)N1CCCC1` [PDTC, pyrrolidine dithiocarbamate], the “effect on intracellular invasion” value in the data set on L. monocytogenes [1] was “did not affect”. In the data set with NF-κB(p65), the “effect on LAP-mediated NF-κB activation” value was “inhibited”. The “effect on translocation of the lap strain” value in the data set with L. monocytogenes [2] is recorded as “no apparent effect”. Also, in the data set on Caco-2 cell monolayers, the “effect on Caco-2 TEER in LAP-treated cells” value is “restored” and the “effect of the inhibitor alone on Caco-2 TEER” value was “did not affect”.
